Reference: US8242166B2, “C(10) ethyl ester and C(10) cyclopropyl ester substituted taxanes” (Florida State University Research Foundation, Inc., priority 2008, dated 2012)
“And” between values parts separate entries of the source, which are not always exact repeats. Equal entries are not always repeated. Where two headings read alike, the source gives them in different places.

Experiments:
DLD-1 = experiment: MTT cytotoxicity (IC50), DLD-1; assay type: cell-based; conditions: Homo sapiens
Experimental: (§1) Compound 17932 was tested in four of these cell lines, while the remaining compounds were tested in all of these cell lines. All cell lines were maintained in RPMI-1640 tissue culture medium (TCM, supplemented with antibiotics and 10% fetal bovine serum) and cultured at 37° C. in humidified air containing 5% CO2. To assess the antiproliferative effects of the test compounds, 172 μL of tumor cell suspension (1.45×10^4 cells/ml) were added to each well of a 96-well plate and incubated for 24 h at 37° C. in 5% CO2 in air to allow cells to adhere. Seven 2-fold drug dilutions in TCM/DMSO were performed in triplicate in separate 96-well plates and 28 μL was transferred to the wells containing tumor cells (200 μL final volume/0.1% DMSO). Plates were incubated for 72 h and cell viability was determined by adding 50 μL of warm TCM containing 5 mg/mL MTT (3-[4,5-dimethylthiazol-2-yl]-2,5-diphenyltetrazolium bromide) to each well and incubating for 1 h at 37° C. Plates were processed and the absorbances of the resulting solutions were measured by a plate reader at 570 nm. […] (GraphPad Prism version 4.00 for Windows). Studies were conducted by Taxolog, Inc., Tallahassee, Fla.

A375 = experiment: MTT cytotoxicity (IC50), A375; assay type: cell-based; conditions: Homo sapiens, A-375
Experimental: as §1

A549 = experiment: MTT cytotoxicity (IC50), A549; assay type: cell-based; conditions: Homo sapiens, 72 h, read-out: IN Vitro IC50 (nm) A549
Experimental: as §1

TK-10 = experiment: MTT cytotoxicity (IC50), TK-10; assay type: cell-based; conditions: Homo sapiens, 72 h, read-out: IN Vitro IC50 (nm) TK10
Experimental: as §1

SK-MEL-28 = experiment: MTT cytotoxicity (IC50), SK-MEL-28; assay type: cell-based; conditions: Homo sapiens, 72 h, read-out: IN Vitro IC50 (nm) ske-mel28
Experimental: as §1

[1] = tested on: HT29 human tumor xenografts; experiment: HT29 xenograft study e139 (Example 23); assay type: in vivo, nude mice; conditions: for Number of Death NTR / Number of Death TR: N=6
[2] = tested on: human A375 melanoma xenograft; experiment: A375 xenograft study e209 (Example 27); conditions: 30 mg/kg iv q4d × 4; for CR (complete regression) / NTR NTRa/u / NTR NTRm / PR (partial regression) / TFS (tumor-free survivor) / TR (treatment-related death): n=6; for % TGD / Median TTE / T-C: vehicle EL
Experimental: The endpoint was a tumor volume of 2,000 mm^3 and the study was terminated on Day 56. Efficacy was assessed by tumor growth delay and the number of partial and complete regressions. Animals with a CR that persisted through Day 56 were classified as long-term tumor-free survivors (TFS).

[3] = tested on: HT29 human tumor xenografts; experiment: HT29 xenograft study e210, oral and i.v. (Example 25); conditions: for CR (complete regression) / NTR NTRa/u / NTR NTRm / PR (partial regression) / TFS (tumor-free survivor) / TR (treatment-related death): n=6
Source text: The formulation for oral studies was an ethanol and Cremophor formulation while the formulation for compound 18365 and compound 19244 dosed i.v. was 5% ethanol and 95% Liposyn II 20%.

[4] = tested on: human BxPC-3 human pancreatic xenograft; assay type: in vivo; conditions: for optimal T/C % value: at D53; for T/C % values: from D33
Experimental: Method: Twenty four (24) hours after a whole body irradiation with a γ-source (7.0 Gy, Co^60, INRA, Dijon, France) 20×10^6 BxPC-3 cells in 200 μl of RPMI 1640 culture medium were subcutaneously injected in the right flank of 8 female Nude rats to generate tumor material. When the tumor size reaches approximately 1,000 mm^3, the tumors were surgically excised for implantation into recipient Nude female rats. Twenty four (24) hours after a whole body irradiation (7.0 Gy, Co^60, INRA, Dijon, France), fresh BxPC-3 tumor fragments were sc implanted in the right flank of 52 Nude female rats (1 fragment/rat) at D0 using surgical pliers and skin was stitched. The antitumor activity study was started at D21 when the mean tumor volume has reached 321.6±131.2 mm^3. Before the start of treatments, 42 tumor bearing rats out of 52 grafted were randomized into 7 groups of 6 animals.
[…]. At 7 mg/kg/inj, only two treatments were performed at D21 and D42 due to severe body weight loss.

[5] = MTT, 72 h, read-out: IN Vitro IC50 (nm) DLD1
[6] = Resistance MDR1+, read-out: DLD1 Colon (Table 4, quantity not named; IC50 values as Table 2)
[7] = MTT, 72 h, read-out: IN Vitro IC50 (nm) A375
[8] = Resistance MRP9, read-out: A375 Melanoma (Table 4, quantity not named; IC50 values as Table 2)

CCC(=O)O[C@H]1C(=O)[C@@]2(C)C([C@H](OC(=O)c3ccccc3)[C@]3(O)C[C@H](OC(=O)[C@H](O)[C@@H](NC(=O)OC4CCCC4)c4cccs4)C(C)=C1C3(C)C)[C@]1(OC(C)=O)CO[C@@H]1C[C@@H]2O (stereo partly shown) [Compound 18926]
IC50 (DLD-1; [5]): 0.8 nM
IC50 (DLD-1; [6]): 0.8 nM
IC50 (A375; [7]): 0.5 nM
IC50 (A375; [8]): 0.5 nM
IC50 (A549): 0.4 nM
IC50 (TK-10): 0.3 nM
IC50 (SK-MEL-28): 0.6 nM
MTV (Day 61) ([1]; 20 mg/kg i.v. q4d×4): 83 mm^3
PR responses ([1]; 20 mg/kg i.v. q4d×4, six mice): 5
Day 51 mm^3 (tumor size) ([1]; 20 mg/kg iv q4d × 4): 142.3 mm^3
Day 54 mm^3 (tumor size) ([1]; 20 mg/kg iv q4d × 4): 147 mm^3
Max. BW Loss %; Day ([1]; 20 mg/kg iv q4d × 4): −20.7%; Day 16
Number of Death NTR ([1]; 20 mg/kg iv q4d × 4): 0
Number of Death TR ([1]; 20 mg/kg iv q4d × 4): 0
BW Nadir [2]: 13.3% (18)
MTV(n), Day 56 [2]: 0.00 (6) mm^3
CR (complete regression) [2]: 6
NTR NTRa/u [2]: 0
NTR NTRm [2]: 0
PR (partial regression) [2]: 0
TFS (tumor-free survivor) [2]: 6
TR (treatment-related death) [2]: 0
% TGD [2]: 210.08%
Median TTE [2]: 56 days
T-C [2]: 37.94 days

CC(=O)O[C@@]12CO[C@@H]1C[C@H](O)[C@@]1(C)C(=O)[C@H](OC(=O)C3CC3)C3=C(C)[C@@H](OC(=O)[C@H](O)[C@@H](NC(=O)OC4CCC4)c4cccs4)C[C@@](O)([C@@H](OC(=O)c4ccccc4)C12)C3(C)C (stereo partly shown) [Compound 18365]
IC50 (DLD-1; [5]): 1.1 nM
IC50 (DLD-1; [6]): 1.1 nM
IC50 (A375; [7]): 0.6 nM
IC50 (A375; [8]): 0.6 nM
IC50 (A549): 0.5 nM
IC50 (TK-10): 0.5 nM
IC50 (SK-MEL-28): 0.9 nM
61-day survivors ([1]; 25 mg/kg i.v. q4d×4, six mice): five
CR responses ([1]; 25 mg/kg i.v. q4d×4, six mice): 2
PR responses ([1]; 25 mg/kg i.v. q4d×4, six mice): 4
Day 51 mm^3 (tumor size) ([1]; 25 mg/kg iv q4d × 4): 112.8 mm^3
Day 54 mm^3 (tumor size) ([1]; 25 mg/kg iv q4d × 4): 124.7 mm^3
Max. BW Loss %; Day ([1]; 25 mg/kg iv q4d × 4): −17.1%; Day 16
Number of Death NTR ([1]; 25 mg/kg iv q4d × 4): 0
Number of Death TR ([1]; 25 mg/kg iv q4d × 4): 1
% TGD ([3]; 25 mg/kg iv q4d × 4): 214.3%
BW Nadir ([3]; 25 mg/kg iv q4d × 4): −7.6% (16)
MTV (n), Day 60 ([3]; 25 mg/kg iv q4d × 4): 5.00 (6) mm^3
Median TTE ([3]; 25 mg/kg iv q4d × 4): 60 days
T-C ([3]; 25 mg/kg iv q4d × 4): 40.91 days
CR (complete regression) ([3]; 25 mg/kg iv q4d × 4): 4
NTR NTRa/u ([3]; 25 mg/kg iv q4d × 4): 0
NTR NTRm ([3]; 25 mg/kg iv q4d × 4): 0
PR (partial regression) ([3]; 25 mg/kg iv q4d × 4): 2
TFS (tumor-free survivor) ([3]; 25 mg/kg iv q4d × 4): 4
TR (treatment-related death) ([3]; 25 mg/kg iv q4d × 4): 0
% TGD ([3]; 50 mg/kg po q4d × 4): 214.3%
BW Nadir ([3]; 50 mg/kg po q4d × 4): −7.6% (16)
MTV (n), Day 60 ([3]; 50 mg/kg po q4d × 4): 8.75 (6) mm^3
Median TTE ([3]; 50 mg/kg po q4d × 4): 60 days
T-C ([3]; 50 mg/kg po q4d × 4): 40.91 days
CR (complete regression) ([3]; 50 mg/kg po q4d × 4): 4
NTR NTRa/u ([3]; 50 mg/kg po q4d × 4): 0
NTR NTRm ([3]; 50 mg/kg po q4d × 4): 0
PR (partial regression) ([3]; 50 mg/kg po q4d × 4): 2
TFS (tumor-free survivor) ([3]; 50 mg/kg po q4d × 4): 3
TR (treatment-related death) ([3]; 50 mg/kg po q4d × 4): 0
activity in the HT29 xenograft tumor model ([3]; every four day schedule for four doses): oral and IV activity
wt loss ([4]; 5 mg/kg): 16.9%
tolerability of repeated IV treatments ([4]; 5 mg/kg/inj): not well tolerated
mean doubling time (DT) of tumors ([4]; 5 mg/kg/inj IV, repeated): 24.7 ± 10.4 days
time to reach volume (T to V) of 1,000 mm^3 ([4]; 5 mg/kg/inj IV, repeated): 64.3 ± 16.3 days
body weight loss ([4]; 5 mg/kg/inj IV, at D33): −16.9±6.1%
optimal T/C % value ([4]; 5 mg/kg/inj IV): 11.0%
animals with complete tumor regression ([4]; 5 mg/kg/inj IV, at D81 (final sacrifice), 6 rats per group): two
T/C % values ([4]; 5 mg/kg/inj IV): lower than 42%
tolerability of repeated IV treatments ([4]; 7 mg/kg/inj): not tolerated
rats out of six alive at the end of the study ([4]; 7 mg/kg/inj IV): one
MBWC D21-D26 ([4]; 7 mg/kg/inj IV, after the first treatment): −16.5±7.2%
optimal T/C % value ([4]; 7 mg/kg/inj IV): 13.2% and 8.9%
T/C % values ([4]; 7 mg/kg/inj IV): lower than 42%
antitumor activity ([4]; repeated IV injections at 5 and 7 mg/kg/inj): marked antitumor activity
BW Nadir [2]: −9.8% (14)
MTV(n), Day 56 [2]: 0.00 (6) mm^3
CR (complete regression) [2]: 5
NTR NTRa/u [2]: 0
NTR NTRm [2]: 0
PR (partial regression) [2]: 0
TFS (tumor-free survivor) [2]: 5
TR (treatment-related death) [2]: 0
% TGD [2]: 210.08%
Median TTE [2]: 56 days
T-C [2]: 37.94 days
